From PubChem BioAssay (NCI)
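Tested at 5 concentrations; 48 h exposure; 96-well plates; endpoints linearly interpolated, else capped at highest concentration. TGI: concentration producing complete growth inhibition.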

Tests used:
Assay in all cases: NCI tumour cell line growth inhibition, 48 h
[1] = system: 786-0 renal
[2] = system: A498 renal
[3] = system: A549 NSCLC
[4] = system: ACHN renal
[5] = system: BT-549 breast
[6] = system: CAKI-1 renal
[7] = system: CCRF-CEM leukemia
[8] = system: COLO 205 colon
[9] = system: DU-145 prostate
[10] = system: EKVX NSCLC
[11] = system: HCC-2998 colon
[12] = system: HCT-116 colon
[13] = system: HCT-15 colon
[14] = system: HL-60(TB) leukemia
[15] = system: HOP-62 NSCLC
[16] = system: HOP-92 NSCLC
[17] = system: HS 578T breast
[18] = system: HT29 colon
[19] = system: IGROV1 ovarian
[20] = system: K-562 leukemia
[21] = system: KM12 colon
[22] = system: LOX IMVI melanoma
[23] = system: M14 melanoma
[24] = system: MALME-3M melanoma
[25] = system: MCF7 breast
[26] = system: MDA-MB-231 breast
[27] = system: MDA-MB-435
[28] = system: MOLT-4 leukemia
[29] = system: NCI-H226 lung
[30] = system: NCI-H23 lung
[31] = system: NCI-H460 lung
[32] = system: NCI-H522 lung
[33] = system: NCI/ADR-RES ovarian
[34] = system: OVCAR-3 ovarian
[35] = system: OVCAR-4 ovarian
[36] = system: OVCAR-5 ovarian
[37] = system: OVCAR-8 ovarian
[38] = system: PC-3 prostate
[39] = system: RPMI-8226 leukemia
[40] = system: RXF 393 renal
[41] = system: SF-268 CNS
[42] = system: SF-295 CNS
[43] = system: SF-539 CNS
[44] = system: SK-MEL-2 melanoma
[45] = system: SK-MEL-28 melanoma
[46] = system: SK-MEL-5 melanoma
[47] = system: SK-OV-3 ovarian
[48] = system: SN12C renal
[49] = system: SNB-19 CNS
[50] = system: SNB-75 CNS
[51] = system: SR leukemia
[52] = system: SW-620 colon
[53] = system: T-47D breast
[54] = system: TK-10 renal
[55] = system: U251 CNS
[56] = system: UACC-257 melanoma
[57] = system: UACC-62 melanoma
[58] = system: UO-31 renal
[59] = system: MDA-N

SMILES: CCCCCCC(=O)OC[n+]1ccc(-c2c(COC(=O)NC(C)C)c(COC(=O)NC(C)C)c3n2CCC3)cc1
- TGI [1]: > 100 µM
- TGI [2]: > 94.2 µM
- TGI [3]: > 100 µM
- TGI [4]: > 100 µM
- TGI [5]: > 100 µM
- TGI [6]: 99.4 µM
- TGI [7]: > 88 µM
- TGI [8]: > 100 µM
- TGI [9]: > 100 µM
- TGI [10]: > 100 µM
- TGI [11]: > 100 µM
- TGI [12]: > 100 µM
- TGI [13]: > 100 µM
- TGI [14]: > 71.4 µM
- TGI [15]: > 100 µM
- TGI [16]: > 100 µM
- TGI [17]: > 100 µM
- TGI [18]: > 100 µM
- TGI [19]: > 100 µM
- TGI [20]: > 100 µM
- TGI [21]: > 100 µM
- TGI [22]: > 100 µM
- TGI [23]: > 100 µM
- TGI [24]: > 100 µM
- TGI [25]: > 100 µM
- TGI [26]: > 100 µM
- TGI [27]: > 100 µM
- TGI [28]: > 94.3 µM
- TGI [29]: > 100 µM
- TGI [30]: > 100 µM
- TGI [31]: > 100 µM
- TGI [32]: > 100 µM
- TGI [33]: > 100 µM
- TGI [34]: > 100 µM
- TGI [35]: > 100 µM
- TGI [36]: > 100 µM
- TGI [37]: > 100 µM
- TGI [38]: > 100 µM
- TGI [39]: 98.9 µM
- TGI [40]: > 100 µM
- TGI [41]: > 100 µM
- TGI [42]: > 100 µM
- TGI [43]: > 100 µM
- TGI [44]: > 100 µM
- TGI [45]: > 100 µM
- TGI [46]: > 100 µM
- TGI [47]: > 100 µM
- TGI [48]: > 100 µM
- TGI [49]: > 100 µM
- TGI [50]: > 100 µM
- TGI [51]: 50.9 µM
- TGI [52]: > 100 µM
- TGI [53]: > 100 µM
- TGI [54]: > 100 µM
- TGI [55]: > 100 µM
- TGI [56]: > 100 µM
- TGI [57]: > 100 µM
- TGI [58]: > 100 µM

SMILES: Cc1nn(CNc2ccc(F)c(Cl)c2)c(=S)n1/N=C/c1ccc(-c2ccc(Cl)cc2Cl)o1
- TGI [1]: 29 µM
- TGI [2]: 30.3 µM
- TGI [4]: 30.7 µM
- TGI [6]: 35.8 µM
- TGI [7]: 18.5 µM
- TGI [9]: 30.7 µM
- TGI [10]: 42.6 µM
- TGI [12]: 30.7 µM
- TGI [13]: 41.6 µM
- TGI [14]: 16.9 µM
- TGI [15]: 35.9 µM
- TGI [17]: 52.9 µM
- TGI [18]: 41.4 µM
- TGI [19]: 34.6 µM
- TGI [20]: 15.5 µM
- TGI [21]: 55.7 µM
- TGI [22]: 44.9 µM
- TGI [23]: 36.9 µM
- TGI [25]: 37.3 µM
- TGI [26]: 34.9 µM
- TGI [27]: 39 µM
- TGI [59]: 33.5 µM
- TGI [28]: 6.59 µM
- TGI [29]: 46.8 µM
- TGI [30]: 38.8 µM
- TGI [31]: 33.7 µM
- TGI [32]: 29.7 µM
- TGI [33]: 44.5 µM
- TGI [34]: 33.1 µM
- TGI [35]: 50 µM
- TGI [36]: 41.2 µM
- TGI [37]: 48.5 µM
- TGI [38]: 30.9 µM
- TGI [39]: 29.7 µM
- TGI [40]: 34.3 µM
- TGI [41]: 34.6 µM
- TGI [42]: 33.7 µM
- TGI [43]: 34.8 µM
- TGI [44]: 41.3 µM
- TGI [45]: 44.3 µM
- TGI [46]: 35.1 µM
- TGI [47]: 33.2 µM
- TGI [51]: 14.7 µM
- TGI [52]: 29.2 µM
- TGI [53]: 58.8 µM
- TGI [54]: 28.9 µM
- TGI [55]: 29 µM
- TGI [56]: 46.9 µM
- TGI [58]: 32.2 µM
